Patent publication US8513248B2, “5,6,7,8-tetrahydroimidazo[1,2-A]pyrazine derivatives as P2X7 modulators” (Glaxo Group Limited, priority 2009, dated 2013)
Structures can show the parent of a compound that is named as a salt.

Assays:
[1] = biological target: T1, human recombinant P2X7 receptors (Homo sapiens, UniProt Q99572); experiment: Ethidium Accumulation Assay 1; assay type: cell-based; conditions: HEK293 cells stably expressing human recombinant P2X7; 1 mM ATP; ethidium 100 μM; read-out: Assay 1 (antagonist pIC50 for blocking ATP responses, ethidium accumulation) (converted)
T1 construct: expressed in transfected cells
T1 sequence (Q99572 1-595): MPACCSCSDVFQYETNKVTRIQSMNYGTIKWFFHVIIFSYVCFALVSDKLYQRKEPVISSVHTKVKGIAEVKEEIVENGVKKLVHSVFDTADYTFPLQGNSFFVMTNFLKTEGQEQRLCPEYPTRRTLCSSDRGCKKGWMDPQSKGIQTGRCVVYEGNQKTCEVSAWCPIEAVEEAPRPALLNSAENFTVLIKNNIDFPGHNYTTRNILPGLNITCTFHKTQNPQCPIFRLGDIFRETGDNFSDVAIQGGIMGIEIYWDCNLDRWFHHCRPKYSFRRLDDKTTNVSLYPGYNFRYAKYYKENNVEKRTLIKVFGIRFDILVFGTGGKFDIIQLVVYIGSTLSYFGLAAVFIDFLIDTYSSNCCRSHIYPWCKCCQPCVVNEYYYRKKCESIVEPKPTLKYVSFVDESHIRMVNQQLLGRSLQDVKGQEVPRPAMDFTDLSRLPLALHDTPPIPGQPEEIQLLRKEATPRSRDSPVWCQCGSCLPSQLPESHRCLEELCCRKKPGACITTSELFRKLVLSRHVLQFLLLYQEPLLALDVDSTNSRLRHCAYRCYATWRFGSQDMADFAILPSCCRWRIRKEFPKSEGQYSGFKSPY
Method: Studies were performed using NaCl assay buffer of the following composition: 140 mM NaCl, 10 mM HEPES [4-(2-hydroxyethyl)-1-piperazine-1-ethanesulfonic acid], 5 mM N-methyl-D-glucamine, 5.6 mM KCl, 10 mM D-glucose, 0.5 mM CaCl2 (pH 7.4).
Human Embryonic Kidney (HEK) 293 cells, stably expressing human recombinant P2X7 receptors, were grown in poly-D-lysine pretreated 96 well plates for 18-24 hours. […] The cells were washed twice with 350 μl of the assay buffer, before addition of 50 μl of the assay buffer containing the putative P2X7 receptor antagonist compound. (A small amount of dimethyl sulfoxide, for initially dissolving the compound, is optionally used and present in this […] test compound sample.) The cells were then incubated at room temperature (19-21° C.) for 30 min before addition of ATP and ethidium (100 μM final assay concentration). The ATP concentration was chosen to be close to the EC80 for the receptor type and was 1 mM for studies on the human P2X7 receptor. Incubations were continued for 8 or 16 min and were terminated by addition of 25 μl of 1.3M sucrose containing 4 mM of the P2X7 receptor antagonist Reactive Black 5 (Aldrich). […] Antagonist pIC50 values for blocking ATP responses were determined using iterative curve fitting techniques.

[2] = biological target: T1, human recombinant P2X7 receptors; experiment: Ethidium Accumulation Assay 2; assay type: cell-based; conditions: HEK293 cells stably expressing human recombinant P2X7; ATP solution with ethidium bromide; 16 min incubation; read-out: Assay 2 (antagonist pIC50 for blocking ATP responses, ethidium accumulation) (converted)
Method: Human Embryonic Kidney (HEK) 293 cells, stably expressing human recombinant P2X7 receptors, were grown in poly-D-lysine pretreated 96 well plates for 24 hours at 37° C.
The cells were washed with assay buffer (100 μL), before addition of 25 μL of assay buffer and then 25 ul of assay buffer containing the putative P2X7 receptor antagonist compound. The cells were then incubated at room temperature (19-21° C.) for 30 min before addition of ATP solution (50 μM). […] Antagonist pIC50 values for blocking ATP responses were determined using iterative curve fitting techniques.

Row | IC50 [1] [nM] | IC50 [2] [nM] | SMILES
1 | < 100 | < 100 | Cc1cnc2n1CCN(C(=O)c1cccc(C(F)(F)F)c1Cl)C2 [Example 27, 7-{[2-Chloro-3-(trifluoromethyl)phenyl]carbonyl}-3-methyl-5,6,7,8-tetrahydroimidazo[1,2-a]pyrazine hydrochloride]
2 | < 100 | < 100 | O=C(c1cccc(C(F)(F)F)c1Cl)N1CCn2ccnc2C1 [Example 1, 7-{[2-Chloro-3-(trifluoromethyl)phenyl]carbonyl}-5,6,7,8-tetrahydroimidazo[1,2-a]pyrazine]
3 | < 10 | – | O=C(c1cccc(C(F)(F)F)c1Cl)N1CCn2c(-c3cccnc3)cnc2C1 [Example 23, a hydrochloride salt (n•HCl) of 7-{[2-chloro-3-(trifluoromethyl)phenyl]carbonyl}-3-(3-pyridinyl)-5,6,7,8-tetrahydroimidazo[1,2-a]pyrazine]
4 | < 10 | – | O=C(c1cccc(C(F)(F)F)c1Cl)N1CCn2c(-c3cnccn3)cnc2C1 [Example 38, 7-{[2-chloro-3-(trifluoromethyl)phenyl]carbonyl}-3-(2-pyrazinyl)-5,6,7,8-tetrahydroimidazo[1,2-a]pyrazine]
5 | < 501 | – | O=C(c1cccc(C(F)(F)F)c1Cl)N1CCn2cc(-c3ccccc3)nc2C1 [Example 14, 7-{[2-chloro-3-(trifluoromethyl)phenyl]carbonyl}-2-phenyl-5,6,7,8-tetrahydroimidazo[1,2-a]pyrazine hydrochloride]
6 | < 100 | – | Cc1ccccc1-c1cnc2n1CCN(C(=O)c1cccc(C(F)(F)F)c1Cl)C2 [Example 28, 7-{[2-Chloro-3-(trifluoromethyl)phenyl]carbonyl}-3-(2-methylphenyl)-5,6,7,8-tetrahydroimidazo[1,2-a]pyrazine hydrochloride]
7 | < 10 | – | O=C(c1cccc(C(F)(F)F)c1Cl)N1CCn2c(nc(I)c2I)C1 [Example 20, 7-{[2-chloro-3-(trifluoromethyl)phenyl]carbonyl}-2,3-diiodo-5,6,7,8-tetrahydroimidazo[1,2-a]pyrazine]

Continued, compound first:

Row | SMILES | IC50 [1] [nM] | IC50 [2] [nM]
8 | O=C(c1cccc(C(F)(F)F)c1Cl)N1CCn2cc(C(F)(F)F)nc2C1 [Example 2, 7-{[2-Chloro-3-(trifluoromethyl)phenyl]carbonyl}-2-(trifluoromethyl)-5,6,7,8-tetrahydroimidazo[1,2-a]pyrazine] | < 100 | < 100
9 | O=C(c1cccc(Cl)c1Cl)N1CCn2cc(-c3ccccc3)nc2C1 [Example 15, 7-[(2,3-dichlorophenyl)carbonyl]-2-phenyl-5,6,7,8-tetrahydroimidazo[1,2-a]pyrazine hydrochloride] | < 1000 | –
10 | O=C(c1ccccc1Cl)N1CCn2c(-c3ccccc3)cnc2C1 [Example 8, 7-[(2-chlorophenyl)carbonyl]-3-phenyl-5,6,7,8-tetrahydroimidazo[1,2-a]pyrazine hydrochloride] | < 100 | –
11 | Cc1cn2c(n1)CN(C(=O)c1cccc(Cl)c1Cl)CC2 [Example 12, 7-[(2,3-dichlorophenyl)carbonyl]-2-methyl-5,6,7,8-tetrahydroimidazo[1,2-a]pyrazine] | < 501 | –
12 | O=C(c1ccc(F)cc1Cl)N1CCn2c(nc(C(F)(F)F)c2Br)C1 [Example 32, 3-Bromo-7-[(2-chloro-4-fluorophenyl)carbonyl]-2-(trifluoromethyl)-5,6,7,8-tetrahydroimidazo[1,2-a]pyrazine] | < 100 | –
13 | CC(C)(C)c1cn2c(n1)CN(C(=O)c1cccc(C(F)(F)F)c1Cl)CC2 [Example 13, 7-{[2-chloro-3-(trifluoromethyl)phenyl]carbonyl}-2-(1,1-dimethylethyl)-5,6,7,8-tetrahydroimidazo[1,2-a]pyrazine hydrochloride] | < 1000 | –
14 | O=C(c1ccc(Cl)cc1Cl)N1CCn2cc(C(F)(F)F)nc2C1 [Example 3, 7-[(2,4-Dichlorophenyl)carbonyl]-2-(trifluoromethyl)-5,6,7,8-tetrahydroimidazo[1,2-a]pyrazine] | < 1000 | –
